Data set [1] relates to Caspase 3/7 activity in primary AML MNC samples. As to the kind of experiment: Caspase-Glo 3/7 assay in primary AML samples. Type of data set: cell-based, human. The protocol:
Cryopreserved mononuclear cells (MNC from BM or leukapheresis samples) were thawed in a water bath at 37° C. and cell suspension transferred to a 50 mL tube. 20 mL of IMDM media (Sigma, 13390) supplemented with 20% FBS (JRH Biosciences), 50 U/mL DNase I (Sigma), 100 IU/mL penicillin (Sigma), 100 μg/mL streptomycin (Sigma) and 2 mM L-glutamine (Sigma) was added dropwise to the cells while the tube was being vortexed slowly (or mixed by hand). The cells were centrifuged at 400 g for 5 min, supernatant was discarded and the cells were washed once with 20 mL PBS. […] The next morning, viability was determined by trypan blue exclusion and samples with viability lower than 85% underwent dead cell removal by density gradient centrifugation as follows: 15 mL of Lymphoprep (AXIS-Shield) was transferred to a 50 mL tube and the cell suspension (25 mL) carefully overlayed (so as not to disturb the interface mixing with the Lymphoprep). […] Viability and cell density were determined by trypan blue exclusion and cells were plated for respective experiments as described in the Results section.
10^4 cells (10 μL) of each sample/treatment were aliquoted in triplicate wells of a 96-well plate (white wall OptiPlate 96, Perkin Elmer) containing 40 μL complete media. […] Luminescence was measured with a FLOUstar OPTIMA plate reader (BMG Labtech). […]

The subject of another data set is AML cell lines. As to the kind of experiment: Cytotoxicity (CellTox Green) and viability/proliferation (CellTiter-Blue) assays. Type of data set: cell-based. How it is done:
The cell lines were plated in 96-well plates (black with clear flat bottom, Costar, 3603) at 2×10^4 cells/well in 50 uL of respective media, containing 0.1% DMSO and CellTox Green reagent (Promega, G8742) at a final dilution of 1/500. Cells were plated in triplicate wells for each dose being tested. EX 1 was reconstituted immediately prior to use at 10 mM in DMSO. The drug was prepared 2× concentrated in media containing 0.1% DMSO and 50 uL added to respective wells. Fluorescence (485-500 nmEx/520-530 nmEm) was measured at 24 h and 48 h with a FLOUstar OPTIMA plate reader (BMG Labtech). After the cytotoxicity measurement at 48 h, 20 μL of CellTiter-Blue reagent (Promega, G8080) was added to each well and the plate incubated for 1 h at 37° C. before fluorescence (560Ex/590Em) was measured with a FLOUstar OPTIMA plate reader (BMG Labtech).
The first experiment was performed with HL60 and MOLM13 cell lines. Cells were expanded and when numbers were adequate (and viability higher than 90%) they were plated in 96-well plates at 2×10^4 cells/well in 50 uL of their respective media, containing 0.1% DMSO and CellTox Green reagent. Doses tested ranged from 1 μM followed by serial 1/10 dilutions until 10^−5 nM EX 1, or vehicle only. Plates were cultured and fluorescence (indicating cytotoxicity) was measured at 24 h and 48 h. After the cytotoxicity was read at 48 h, CellTiter-Blue reagent was added to each well. The readout of this assay is based on the metabolic activity of cells and it is used as surrogate marker for proliferation and/or cell viability.
The next experiment was performed with the cell lines ME1, OCI-AML3, MV4; 11 and KG1 following the same protocol as above. From the results from the previous experiment it was observed that the non-linear curve fit was very steep between 1 nM and 0.1 nM (FIGS. 1A and B); thus, for this and the subsequent experiments the drug doses were adjusted to: […], 10 nM, 1 nM, 0.75 nM, 0.5 nM, 0.25 nM, 0.1 nM, 0.01 nM and 0.001 nM. […] Cytotoxicity and proliferation (metabolic assay) were measured as above. […]

Each structure is given as a SMILES string.

For orientation: IC50 means the concentration at which inhibition is half-maximal. For the molecule `COc1cc(C(=O)c2c(C)oc3c(O)c(OC)ccc23)cc(OC)c1OC` [EX 1, 2-Methyl-7-hydroxy-3-(3,4,5-trimethoxybenzoyl)-6-methoxybenzofuran], the “caspase 3/7 activity” value in data set [1] (AML480, 24 h) is recorded as “some increase in caspase activity”. Also, in data set [1] (all the AML samples, 48 h), the “caspase 3/7 activity compared to DMSO” value is given as “increase in caspase activity”. For the same molecule, the “cytotoxicity and CellTiter response” value in the data set with AML cell lines (less sensitive cell lines ME1, OCI-AML3 and KG1) was “showed a lower cytotoxicity response”. Further, in the data set with AML cell lines (more sensitive cell lines HL60, MOLM13 and MV4;11), the “cytotoxicity and inhibitory proliferation response” value was “reached the highest cytotoxicity and showed the largest inhibitory proliferation response”. The IC50 with AML cell lines (range over six AML cell lines (MV4;11, MOLM13, HL60, KG1, ME1, OCI-AML3), 48 h, FIGS. 1A and B, read-out: IC50 doses (cytotoxicity and viability)) lay within 0.2 to 1.3 nM.

(Values after US11478445B2, “Method for treating acute myeloid leukemia” (Bionomics Limited, priority 2017, dated 2022).)
